Reference: ChEMBL document CHEMBL1139441, “Design, synthesis, molecular modeling studies, and calpain inhibitory activity of novel alpha-ketoamides incorporating polar residues at the P1'-position” (J Med Chem, 2004)

What follows are compounds tested against T1, Calpain-1 catalytic subunit (Sus scrofa, UniProt P35750) (assay: Binding affinity against porcine erythrocyte calpain I was determined).
T1 sequence (P35750 whole entry): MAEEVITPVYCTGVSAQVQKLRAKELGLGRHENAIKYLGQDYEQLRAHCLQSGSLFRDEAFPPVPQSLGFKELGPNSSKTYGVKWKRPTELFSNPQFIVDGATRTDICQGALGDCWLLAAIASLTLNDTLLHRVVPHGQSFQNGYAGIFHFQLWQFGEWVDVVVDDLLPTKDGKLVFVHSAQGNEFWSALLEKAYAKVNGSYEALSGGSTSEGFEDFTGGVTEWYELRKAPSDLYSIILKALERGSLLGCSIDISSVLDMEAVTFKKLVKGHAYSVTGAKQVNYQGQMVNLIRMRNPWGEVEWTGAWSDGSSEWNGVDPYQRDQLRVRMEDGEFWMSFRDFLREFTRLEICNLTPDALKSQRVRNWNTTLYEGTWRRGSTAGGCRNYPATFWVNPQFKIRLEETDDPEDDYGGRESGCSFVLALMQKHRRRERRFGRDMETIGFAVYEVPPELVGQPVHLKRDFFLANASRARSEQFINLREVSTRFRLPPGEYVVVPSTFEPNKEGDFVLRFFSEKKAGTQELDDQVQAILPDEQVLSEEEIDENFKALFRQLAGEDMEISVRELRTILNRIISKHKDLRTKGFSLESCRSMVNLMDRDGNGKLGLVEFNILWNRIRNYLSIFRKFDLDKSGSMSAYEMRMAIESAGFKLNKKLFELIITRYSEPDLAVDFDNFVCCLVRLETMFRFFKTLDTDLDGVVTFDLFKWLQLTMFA

First: CC(C)CC(NC(=O)OCc1ccccc1)C(=O)N[C@@H](Cc1ccccc1)C(=O)C(=O)N[C@H](Cc1ccccc1)C(=O)O (stereo partly specified)
Second: CC(C)CC(NC(=O)OCc1ccccc1)C(=O)N[C@@H](Cc1ccccc1)C(=O)C(=O)N[C@@H](Cc1ccccc1)C(=O)O (stereo partly specified)
The Ki of the first is higher: greater than 430000 nM for the first, 830 nM for the second.

Compared with `CC(C)CC(NC(=O)OCc1ccccc1)C(=O)N[C@@H](Cc1ccccc1)C(=O)C(=O)NNCc1ccccc1` (stereo partly specified), `CC(C)CC(NC(=O)OCc1ccccc1)C(=O)N[C@@H](Cc1ccccc1)C(=O)C(=O)NCCc1ccccc1` (stereo partly specified) is 11-fold higher in Ki: 4.7 nM for the first, 54 nM for the second. The first binds more tightly here.

`COC(=O)[C@H](Cc1ccccc1)NC(=O)C(=O)[C@H](Cc1ccccc1)NC(=O)C(CC(C)C)NC(=O)OCc1ccccc1` (stereo partly specified) and `COC(=O)[C@@H](Cc1ccccc1)NC(=O)C(=O)[C@H](Cc1ccccc1)NC(=O)C(CC(C)C)NC(=O)OCc1ccccc1` (stereo partly specified) are within 1.5-fold of each other in Ki: 680 nM for the first, 940 nM for the second.
